Data set [1] has as its target T1, DNA topoisomerase 1 (Homo sapiens) (UniProt P11387).
T1 sequence (whole entry): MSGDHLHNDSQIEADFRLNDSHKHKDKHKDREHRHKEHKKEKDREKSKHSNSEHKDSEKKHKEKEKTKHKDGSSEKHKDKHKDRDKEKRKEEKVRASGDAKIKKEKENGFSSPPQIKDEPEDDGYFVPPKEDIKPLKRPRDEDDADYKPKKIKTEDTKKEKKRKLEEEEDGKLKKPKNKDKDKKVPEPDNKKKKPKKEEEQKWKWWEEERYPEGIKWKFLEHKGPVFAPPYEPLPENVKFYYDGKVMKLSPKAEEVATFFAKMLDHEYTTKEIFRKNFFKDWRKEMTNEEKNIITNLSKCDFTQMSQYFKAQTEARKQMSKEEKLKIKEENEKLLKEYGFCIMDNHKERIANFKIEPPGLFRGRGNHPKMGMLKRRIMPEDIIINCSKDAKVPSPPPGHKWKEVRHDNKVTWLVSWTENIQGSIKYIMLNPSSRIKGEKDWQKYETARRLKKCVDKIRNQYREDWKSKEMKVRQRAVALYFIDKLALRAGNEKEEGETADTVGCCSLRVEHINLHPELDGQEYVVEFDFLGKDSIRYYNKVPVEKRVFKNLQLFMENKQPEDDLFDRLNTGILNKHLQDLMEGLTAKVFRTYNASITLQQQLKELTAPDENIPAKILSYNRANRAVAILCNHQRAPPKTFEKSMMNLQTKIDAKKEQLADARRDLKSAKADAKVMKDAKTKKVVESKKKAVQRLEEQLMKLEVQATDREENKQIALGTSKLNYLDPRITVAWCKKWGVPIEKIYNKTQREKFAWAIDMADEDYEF
Put plainly: Inhibition of Top1 (unknown origin)-mediated pBR322 DNA cleavage using ethidium bromide staining at 50 uM after 15 mins by electrophoresis analysis.

The test system of a further data set is MDA-MB-435. Put plainly: Cytotoxicity against human MDA-MB-435 cells after 72 hrs by MTT assay. The class given is functional, cell-based. Conditions: MDA-MB-435, 72 h. On the technique in general: Tetrazolium dyes change colour on reduction, which living cells bring about.
The target of another data set is Tubulin. The data set is described as follows: Inhibition of brain tubulin (unknown origin) polymerization measured up to 15 to 30 mins. More on the design: species or system Homo sapiens.
The target in data set [2] is T1, DNA topoisomerase 1 (Homo sapiens). Put plainly: Inhibition of Top1 (unknown origin)-mediated pBR322 DNA cleavage using ethidium bromide staining at 200 uM after 15 mins by electrophoresis analysis.
In another data set the target is Tubulin (Homo sapiens) (UniProt P68371+Q9H4B7+P0DPH7+P68366+Q13509+Q71U36+P04350+Q3ZCM7+P07437+P68363+Q9BQE3+Q6PEY2+Q13885+Q9BVA1+Q9BUF5). The data set is described as follows: Inhibition of brain tubulin (unknown origin) polymerization at 5 uM measured up to 15 to 30 mins.
Data set [3] has as its system HCT-116. The data set is described as follows: Antitumor activity against human HCT116 cells xenografted in BALB/C mouse assessed as tumor growth inhibition at 2 mg/kg, ip for 5 days. The class given is functional, organism-based. Background: Xenograft models place foreign cells or tissue in a host animal.
For the next data set, the system named is K562. The data set is described as follows: Cytotoxicity against human K562 cells after 72 hrs by MTT assay. The class given is functional, cell-based. Conditions: K562, 72 h.
For data set [4], the system named is HCT-116. The data set is described as follows: Cytotoxicity against human HCT116 cells after 72 hrs by MTT assay. The class given is functional, cell-based. Conditions: HCT-116, 72 h.
Data set [5] has as its system A549. Put plainly: Cytotoxicity against human A549 cells after 72 hrs by MTT assay. The class given is functional, cell-based. The following applies: A549, 72 h.
The nature of data set [6]: Cytotoxicity against human SW579 cells after 72 hrs by MTT assay. The class given is functional, cell-based. The following applies: SW579, 72 h.
A short description of data set [7]: Cytotoxicity against human Bel7404 cells after 72 hrs by MTT assay. Conditions: BEL-7404, 72 h. The class given is functional, cell-based.
The subject of another data set is PC-3. Put plainly: cells. Conditions: Homo sapiens, PC-3, 72 h.
Data set [8] addresses T1, DNA topoisomerase 1 (Homo sapiens). Put plainly: Inhibition of Top1 (unknown origin)-mediated pBR322 DNA cleavage using ethidium bromide staining at 100 uM after 15 mins by electrophoresis analysis.
Data set [9] in a line: Cytotoxicity against human SKHEP1 cells after 72 hrs by MTT assay. Conditions: SK-HEP1, 72 h. The class given is functional, cell-based.
A further data set has as its system NCI-H446. Put plainly: Cytotoxicity against human NCI-H446 cells after 72 hrs by MTT assay. The class given is functional, cell-based. The following applies: NCI-H446, 72 h.
Data set [10] deals with DNA topoisomerase 2-alpha (Homo sapiens) (UniProt P11388). The data set is described as follows: Inhibition of Top2alpha (unknown origin)-mediated pBR322 DNA cleavage using ethidium bromide staining at 100 uM after 30 mins by electrophoresis analysis.
Data set [11] is described as follows: Cytotoxicity against human MV-3 cells after 72 hrs by MTT assay. The class given is functional, cell-based. The following applies: MV-3, 72 h.
Data set [12] concerns Mus musculus. The data set is described as follows: Toxicity in human A549 cells xenografted BALB/C mouse assessed as mortality at 2 mg/kg, ip for 5 days. The class given is organism-based. The following applies: in vivo, 120 h.
The subject of data set [13] is A549. Put plainly: Induction of apoptosis in human A549 cells assessed as apoptotic cells at 5 uM after 48 hrs by flow cytometry analysis. The class given is functional. A general note: A flow cytometer gives signals particle by particle.
For data set [14], the system named is A549. Put plainly: Induction of apoptosis in human A549 cells assessed as change in cell morphology at 5 uM after 36 hrs by light microscope analysis. The class given is functional, cell-based.
The subject of data set [15] is A549. Put plainly: Antitumor activity against human A549 cells xenografted in BALB/C mouse assessed as tumor growth inhibition at 2 mg/kg, ip for 5 days. The class given is functional, organism-based.
For data set [16], the system named is A549. Put plainly: Cell cycle arrest in human A549 cells assessed as accumulation at G2/M phase using propidium iodide staining at 5 uM after 36 hrs by flow cytometry analysis. The class given is functional.
Data set [17] has as its system A549. The data set is described as follows: Cell cycle arrest in human A549 cells assessed as accumulation at G2/M phase using propidium iodide staining at 5 uM after 12 hrs by flow cytometry analysis. The class given is functional, cell-based.
Data set [18] relates to Mus musculus. Put plainly: Toxicity in human A549 cells xenografted BALB/C mouse assessed as change in body weight at 2 mg/kg, ip for 5 days. The class given is organism-based. Conditions: in vivo, 120 h.
Data set [19] deals with Mus musculus. The data set is described as follows: Toxicity in human A549 cells xenografted BALB/C mouse assessed as change in body weight at 0.5 mg/kg, ip for 5 days. The class given is organism-based. Conditions: in vivo, 120 h.

One may read the inhibition as how much of the control response was suppressed. The term IC50 denotes the concentration needed to halve the response being measured.

Activity calls are given as the source filed them. The rule behind the calls is not given here.

Chain of DNA topoisomerase 2-alpha (Homo sapiens) (P11388 whole entry): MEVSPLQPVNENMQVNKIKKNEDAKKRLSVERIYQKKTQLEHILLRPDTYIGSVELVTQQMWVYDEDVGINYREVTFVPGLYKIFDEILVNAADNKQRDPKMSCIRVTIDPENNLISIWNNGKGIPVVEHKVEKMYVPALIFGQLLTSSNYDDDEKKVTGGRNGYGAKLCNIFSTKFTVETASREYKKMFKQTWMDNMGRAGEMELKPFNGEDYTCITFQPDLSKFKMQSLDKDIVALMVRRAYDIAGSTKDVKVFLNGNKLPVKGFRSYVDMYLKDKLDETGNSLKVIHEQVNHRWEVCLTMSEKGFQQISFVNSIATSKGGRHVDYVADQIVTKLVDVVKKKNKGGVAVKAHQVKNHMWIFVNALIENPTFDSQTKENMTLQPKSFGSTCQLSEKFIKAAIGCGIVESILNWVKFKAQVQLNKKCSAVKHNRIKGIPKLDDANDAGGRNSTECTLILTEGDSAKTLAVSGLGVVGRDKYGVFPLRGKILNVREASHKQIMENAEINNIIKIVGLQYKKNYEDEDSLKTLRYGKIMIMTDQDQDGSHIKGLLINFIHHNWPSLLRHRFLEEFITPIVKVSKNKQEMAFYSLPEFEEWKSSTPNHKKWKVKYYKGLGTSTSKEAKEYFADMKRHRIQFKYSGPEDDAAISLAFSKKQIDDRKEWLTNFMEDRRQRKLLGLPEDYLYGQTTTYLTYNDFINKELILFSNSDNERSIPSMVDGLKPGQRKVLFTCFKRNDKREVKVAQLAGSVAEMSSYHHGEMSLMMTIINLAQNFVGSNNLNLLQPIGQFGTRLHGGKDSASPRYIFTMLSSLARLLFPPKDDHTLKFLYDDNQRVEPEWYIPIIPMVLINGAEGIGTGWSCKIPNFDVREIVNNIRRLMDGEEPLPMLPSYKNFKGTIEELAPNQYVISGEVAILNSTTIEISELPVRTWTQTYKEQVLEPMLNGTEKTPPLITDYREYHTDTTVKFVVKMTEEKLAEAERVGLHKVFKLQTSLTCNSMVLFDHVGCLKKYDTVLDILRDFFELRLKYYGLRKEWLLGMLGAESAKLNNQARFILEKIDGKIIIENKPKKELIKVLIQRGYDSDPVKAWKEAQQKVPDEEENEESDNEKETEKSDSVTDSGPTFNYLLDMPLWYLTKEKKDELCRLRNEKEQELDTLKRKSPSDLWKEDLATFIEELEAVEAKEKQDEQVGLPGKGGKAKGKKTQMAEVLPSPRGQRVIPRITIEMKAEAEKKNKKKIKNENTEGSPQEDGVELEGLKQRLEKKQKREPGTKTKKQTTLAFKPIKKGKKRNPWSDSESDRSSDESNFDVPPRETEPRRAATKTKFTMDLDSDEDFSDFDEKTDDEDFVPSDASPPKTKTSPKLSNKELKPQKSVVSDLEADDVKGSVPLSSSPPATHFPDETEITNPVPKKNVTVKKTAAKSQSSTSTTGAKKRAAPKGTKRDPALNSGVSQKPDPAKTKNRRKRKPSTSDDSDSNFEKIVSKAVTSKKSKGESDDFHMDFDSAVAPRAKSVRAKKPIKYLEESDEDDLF
Description for PC-3: Cytotoxicity against human PC3 cells after 72 hrs by MTT assay

Consider `O=C1c2cc(Cl)ccc2SC2c3[nH]c4ccc(O)cc4c3CCN12` (stereo unspecified), for which the inhibition result in data set [1], in [2], in [8] and in [10] was “Active” throughout. Also, the IC50 was under 3 nM in the data set with MDA-MB-435; 4500 nM at Tubulin; under 3 nM in the data set on K562; under 3 nM in the data set on HCT-116 [4]; 20 nM with A549 [5]; 6900 nM in data set [6]. Moreover, the half-inhibitory concentration (IC50) in [7] is under 3 nM; in the data set on PC-3, 370 nM; in data set [9], 2100 nM; with NCI-H446, over 200000 nM; in data set [11], 1300 nM. In addition, the inhibition on Tubulin (Homo sapiens) is 63%. Also, the “growth inhibition (GI)” value with HCT-116 [3] is “Active”.
`O=C1c2ccccc2SC2c3[nH]c4ccc(O)cc4c3CCN12` (stereo unspecified): the IC50 in the data set with MDA-MB-435 was under 3 nM; in the data set on HCT-116 [4], 40 nM; in the data set with A549 [5], 50 nM. In addition, the Activity entry is recorded as “Non-toxic” in the data set with Mus musculus [12], 6% with A549 [13], 68.2% in the data set with A549 [16] and “Non-toxic” with Mus musculus [18]. Besides, the inhibition entry in [2] is “Active”. Further, the “growth inhibition (GI)” value in the data set with HCT-116 [3] and with A549 [15] was “Active” throughout. In addition, the outcome in the data set on A549 [14] and in the data set with A549 [17] was Active. The inhibition entry in data set [10] is “inactive”.
`O=C1c2cc(Cl)ccc2OC2c3[nH]c4ccc(O)cc4c3CCN12` (stereo unspecified): the IC50 was 60 nM in the data set with MDA-MB-435; 5300 nM at Tubulin; under 3 nM with K562; under 3 nM in the data set on HCT-116 [4]; 5200 nM in the data set with A549 [5]; 5560 nM in data set [6]. The 50% inhibitory concentration (IC50) in data set [7] is under 3 nM; in the data set on PC-3, 400 nM; in [9] it was 1800 nM; in the data set on NCI-H446 it was over 200000 nM; in data set [11], 1100 nM. Besides, the Activity entry was “Non-toxic” in the data set on Mus musculus [12], 6.7% with A549 [13], 63.7% with A549 [16] and “Non-toxic” in the data set with Mus musculus [18]. Moreover, the inhibition entry in [2] is “Active”. At Tubulin (Homo sapiens), the inhibition worked out at 48%. Further, the “growth inhibition (GI)” value with HCT-116 [3] and in the data set on A549 [15] was “Active” in each case. Also, the outcome in the data set with A549 [14] and in the data set with A549 [17] was Active. Moreover, the inhibition result in [10] is “inactive”.
For `CC[C@@]1(O)C(=O)OCc2c1cc1n(c2=O)Cc2cc3c(CN(C)C)c(O)ccc3nc2-1` [TOPOTECAN], the results for the IC50 in the data set on MDA-MB-435, in the data set on HCT-116 [4] and in the data set with A549 [5] were 400 nM, 700 nM and 7400 nM, respectively. Also, the Activity result in the data set on Mus musculus [19] was “Toxic”.

The record behind these values is ChEMBL document CHEMBL3600310 (J Med Chem, 2015).
